The target of experiment [1] is T1, Phosphodiesterase 4 (Homo sapiens, UniProt P27815+Q08499+Q07343+Q08493). As to the kind of experiment: Inhibition of Phosphodiesterase 4 from human neutrophils at 10e-7 M. Type of experiment: protein assay.
A further experiment is filed under the species Homo sapiens. As to the kind of experiment: Inhibition of TNF alpha synthesis in human monocytes. It counts as functional.
For experiment [2], the target named is T1, Phosphodiesterase 4. As to the kind of experiment: Inhibition of Phosphodiesterase 4 from human neutrophils. It counts as protein assay.
The target of experiment [3] is T1, Phosphodiesterase 4. In words: Inhibition of rolipram binding to PDE4 from human neutrophils. It counts as protein assay.
For the next experiment, the system named is Canis familiaris. As to the kind of experiment: Emetic effect in dogs after intravenous dose. The settings on record: Canis lupus familiaris. Type of experiment: functional.
For another experiment, the species on record is Rattus norvegicus. As to the kind of experiment: Increased acid secretion in isolated whole rat stomach. It counts as functional.

In turn, `COc1cc2cnnc(Nc3c(Cl)cncc3Cl)c2cc1OC1CCCC1` registered an inhibition against Phosphodiesterase 4 [1] of 7%.
`COc1ccc2c(Cc3c(Cl)cncc3Cl)nncc2c1C#CCCCc1ccccc1`: the results for the IC50 in the experiment listed under Homo sapiens and against Phosphodiesterase 4 [2] were 30 nM and 10 nM, respectively. Moreover, at Phosphodiesterase 4 [3], the Ki amounted to 71 nM.
For `COc1ccc2c(Cc3c(Cl)cncc3Cl)nncc2c1CCCCCc1ccccc1`, in that order: 103 nM, 30 nM and 320 nM.
Consider `COc1ccc2c(Cc3c(Cl)cncc3Cl)nncc2c1OC1CCCC1`, for which the IC50 came to 254 nM in the experiment listed under Homo sapiens, 53 nM against Phosphodiesterase 4 [2] and 7000 nM in the experiment filed under Rattus norvegicus. Also, the ED50 with Canis familiaris was > 10 µmol/kg. The compound also yielded a Ki on Phosphodiesterase 4 [3] of 149 nM.
For the compound `COc1ccc(C2CNC(=O)C2)cc1OC1CCCC1` (centres undefined) [ROLIPRAM], the IC50 is 225 nM in the experiment filed under Homo sapiens and 40 nM in the experiment listed under Rattus norvegicus. For the same compound, the 50% effective dose (ED50) with Canis familiaris is 0.3 µmol/kg.
For `FC(F)Oc1ccc2c(Cc3c(Cl)cncc3Cl)nncc2c1OC1CCCC1`, the IC50 in the experiment listed under Homo sapiens was determined as 167 nM; against Phosphodiesterase 4 [2] it was 39 nM. Besides, at Phosphodiesterase 4 [3], the Ki was found to be 46 nM.
Turning to `COc1ccc2c(Cc3c(Cl)cncc3Cl)nncc2c1OCCCCCc1ccccc1`, the IC50 was 83 nM in the experiment listed under Homo sapiens and 57 nM against Phosphodiesterase 4 [2]. On Phosphodiesterase 4 [3], this compound displayed a Ki of 13 nM.
`COc1ccc2c(Cc3c(Cl)cncc3Cl)nncc2c1OC1CCOC1` (centres undefined): the half-maximal inhibitory concentration (IC50) against Phosphodiesterase 4 [2] came out at 153 nM. The compound further displayed a Ki on Phosphodiesterase 4 [3] of 286 nM.
For `COc1ccc2c(Cc3c(Cl)cncc3Cl)nncc2c1OC1Cc2ccccc2C1`, the IC50 came out at 252 nM in the experiment filed under Homo sapiens and 30 nM at Phosphodiesterase 4 [2]. The Ki at Phosphodiesterase 4 [3] came out at 16 nM.
With `COc1ccc(C(=O)Nc2c(Cl)cncc2Cl)cc1OC1CCCC1`, the IC50 was determined as 1.3 nM in the experiment listed under Homo sapiens and 70 nM in the experiment filed under Rattus norvegicus. For the same compound, it took a dose of 1 µmol/kg to reach the 50% effect level with Canis familiaris (ED50).
Regarding `COc1cc2cnnc(Cc3c(Cl)cncc3Cl)c2cc1OC1CCCC1`, on Phosphodiesterase 4 [2], the IC50 turned out to be 186 nM.
Regarding `COc1ccc2c(Cc3c(Cl)cncc3Cl)n[n+]([O-])cc2c1OC1CCCC1`, the figures for the IC50 in the experiment listed under Homo sapiens and at Phosphodiesterase 4 [2] were 139 nM and 42 nM, respectively. On Phosphodiesterase 4 [3], this compound yielded a Ki of 121 nM.
The like results for `COc1ccc2c(Cc3c(Cl)cncc3Cl)nncc2c1/C=C/CCCc1ccccc1` were, in that order, 52 nM, 19 nM and 164 nM.
For `COc1ccc2c(Nc3c(Cl)cncc3Cl)nncc2c1OC1CCCC1`, in that order: 187 nM, 59 nM and 95 nM.
